From ChEMBL document CHEMBL2407045, “Discovery and gram-scale synthesis of BMS-593214, a potent, selective FVIIa inhibitor” (Bioorg Med Chem Lett, 2013)

Experiments:
Trypsin = Trypsin (Homo sapiens, UniProt P07477+P07478+P35030); assay: Inhibition of purified human trypsin; type: protein assay
Coagulation factor VII = target: T1, Coagulation factor VII (Homo sapiens, UniProt P08709); assay: Inhibition of recombinant human coagulation factor 7A
T1 sequence (P08709 whole entry): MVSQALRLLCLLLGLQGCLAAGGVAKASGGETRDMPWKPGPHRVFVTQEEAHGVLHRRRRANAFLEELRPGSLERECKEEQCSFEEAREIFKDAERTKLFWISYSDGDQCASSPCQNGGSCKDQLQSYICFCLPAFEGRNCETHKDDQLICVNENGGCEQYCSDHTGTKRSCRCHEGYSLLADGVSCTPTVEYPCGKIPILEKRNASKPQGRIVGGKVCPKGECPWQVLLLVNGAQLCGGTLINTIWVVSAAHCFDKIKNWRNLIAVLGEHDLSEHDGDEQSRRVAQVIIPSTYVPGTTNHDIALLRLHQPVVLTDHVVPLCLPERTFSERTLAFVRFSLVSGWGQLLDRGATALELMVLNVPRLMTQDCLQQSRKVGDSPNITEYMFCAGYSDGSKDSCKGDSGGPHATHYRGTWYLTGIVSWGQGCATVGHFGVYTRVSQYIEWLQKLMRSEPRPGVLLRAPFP

Prothrombin = Prothrombin (Homo sapiens, UniProt P00734); assay: Inhibition of purified human thrombin
Coagulation factor X = Coagulation factor X (Homo sapiens, UniProt P00742); assay: Inhibition of purified human coagulation factor 10a
Oryctolagus cuniculus [1] = organism: Oryctolagus cuniculus; assay: Toxicity in rabbit assessed as prolongation of cuticle bleeding time; type: organism-based; conditions: in vivo
Oryctolagus cuniculus [2] = organism: Oryctolagus cuniculus; assay: Antithrombotic activity in rabbit electric current arterial thrombosis model; type: functional, organism-based
[3] = Anticoagulant activity in plasma (unknown origin) assessed as concentration required to double prothrombin time; type: functional

Chain of Coagulation factor X (P00742 41-179 limits assumed): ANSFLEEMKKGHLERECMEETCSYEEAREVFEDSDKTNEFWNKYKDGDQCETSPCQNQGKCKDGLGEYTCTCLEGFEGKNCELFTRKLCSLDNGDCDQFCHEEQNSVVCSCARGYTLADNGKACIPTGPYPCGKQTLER
Chain of Coagulation factor X (P00742 235-488 limits assumed): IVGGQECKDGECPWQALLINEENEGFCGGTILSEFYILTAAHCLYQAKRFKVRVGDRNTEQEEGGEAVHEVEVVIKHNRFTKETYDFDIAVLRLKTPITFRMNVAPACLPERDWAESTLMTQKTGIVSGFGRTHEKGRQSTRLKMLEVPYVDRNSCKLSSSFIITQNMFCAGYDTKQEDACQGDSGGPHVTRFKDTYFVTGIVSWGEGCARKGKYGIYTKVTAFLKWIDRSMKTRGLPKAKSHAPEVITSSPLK

| Structure (SMILES) | Ki (Trypsin) [nM] | Ki (Coagulation factor VII) [nM] | Ki (Prothrombin) [nM] | Ki (Coagulation factor X) [nM] | EC50 (Oryctolagus cuniculus [2]) [nM] | Activity (Oryctolagus cuniculus [1]) | 2PT [3] [µM] |
| --- | --- | --- | --- | --- | --- | --- | --- |
| COc1cc([C@@H]2Nc3ccc(C(=N)N)cc3[C@H]3c4ccccc4C[C@H]32)c(-c2ccc(C(=O)O)cc2)cc1O | – | – | – | – | 570 | Non-toxic | – |
| COc1cc([C@@H]2Nc3ccc(C(=N)N)cc3[C@H]3c4ccccc4C[C@H]32)c(-c2ccc(C(=O)O)cc2)cc1O (racemic) | > 8000 | 1.9 | 1800 | 1300 | – | – | 16 |
| COc1cc([C@@H]2Nc3ccc(C(=N)N)cc3[C@H]3c4ccccc4C[C@H]32)c(-c2ccccc2C(=O)O)cc1O (racemic) | 7.5 | 0.62 | 35 | 16 | – | – | – |
| C[C@]1(c2ccccc2)C[C@H](c2ccc(O)cc2)Nc2ccc(C(=N)N)cc21 | – | 8800 | – | – | – | – | – |
| COc1cc([C@@H]2Nc3ccc(C(=N)N)cc3[C@H]3c4ccccc4C[C@H]32)c(-c2cccc(C(=O)O)c2)cc1O (racemic) | 6900 | 8.1 | 330 | 1500 | – | – | – |

Further lines, with some results ahead:

| Ki (Trypsin) [nM] | Ki (Coagulation factor VII) [nM] | Ki (Prothrombin) [nM] | Ki (Coagulation factor X) [nM] | EC50 (Oryctolagus cuniculus [2]) [nM] | Structure (SMILES) | Activity (Oryctolagus cuniculus [1]) | 2PT [3] [µM] |
| --- | --- | --- | --- | --- | --- | --- | --- |
| 300 | 160 | 300 | > 500 | – | COc1cc([C@@H]2Nc3ccc(C(=N)N)cc3[C@H]3c4ccccc4C[C@H]32)ccc1O (racemic) | – | – |
| – | 1800 | – | – | – | COc1cc([C@H]2C[C@H](c3ccccc3)c3cc(C(=N)N)ccc3N2)ccc1O | – | – |
